Assay results: patent US20170107235A1, “PYRROLOBENZ[…] FOR TREATING LYMPHOMA” (ADC PRODUCTS (UK) LIMITED, priority 2014, published 2017)
Values joined by “and” are separate entries in the source; they are usually repeats but may differ in a detail not shown here. Identical values can stand only once.

System: dogs with spontaneous malignancies (lymphoma)
Test: Phase Ia clinical trial of SG2000 in dogs with spontaneous malignancies (lymphoma patients)
Format: in vivo
Parameters: key to Response during first cycle / Response to SG2000: Complete response (CR) is defined as the disappearance of all target lesions; Partial response (PR) is defined as a >30% decrease in the sum of the longest dimensions of the target lesions; Progressive disease (PD) is defined as a >20% increase in the sum of the longest dimensions of the target lesions; Stable Disease (SD) is defined as neither sufficient shrinkage to qualify for PR nor sufficient increase to qualify for PD
Protocol: A Phase Ia clinical trial in dogs with spontaneous malignancies was undertaken at the Royal Veterinary College, University of London, UK.
was supplied in 5 mL vials, wherein each mL contains 10 micrograms of SG2000 and 47.1 mg of dimethylacetamide. For doses below 100 microgram, the required volume of SG2000 was diluted to 10 ml with normal saline (0.9% sodium chloride) prior to administration. If the total dose exceeds 100 micrograms, the supplied solution was used without prior dilution with normal saline.
SG2000 was administered as a slow intravenous infusion into a peripheral vein. The drug was be administered slowly IV over 20 minutes via a peripheral vein catheter. If the drug has been diluted to a total volume of 10 ml, this will mean injecting 0.5 ml per minute.
The following concomitant/supportive medications permitted during the trial were:
The following definitions are used in reporting the results:
Complete response (CR) is defined as the disappearance of all target lesions.
Partial response (PR) is defined as a >30% decrease in the sum of the longest dimensions of the target lesions, taking as a reference the baseline sum longest dimensions.
Progressive disease (PD) is defined as a >20% increase in the sum of the longest dimensions of the target lesions, taking as a reference the smallest sum of the longest dimensions recorded since the treatment started, or the appearance of 1 or more new lesions.
Stable Disease (SD) is defined as neither sufficient shrinkage to qualify for PR nor sufficient increase to qualify for PD, taking as a reference the smallest sum of the longest dimensions since the treatment started.
Objective Response Rate (ORR) is defined as the number of patients with confirmed complete or partial responses, expressed as a percentage of all patients treated with SG2000
Time to Progression (TTP) is defined as the period of time from first date of treatment to the date that the patient is withdrawn because of clinical or imaging-based progressive disease, or death from any cause (including euthanasia).
“Duration of Response” is defined for patients with an objective response only.
This patient, diagnosed with multicentric B-cell high grade lymphoma, had been previously treated with 5 protocols. This patient was treated for a first cycle (3 weeks) with IV 1.75 μg/kg SG2000 solution with a single weekly dose. […] The second cycle of treatment followed with IV 2.00 μg/kg SG2000 with a single weekly dose. The third cycle of weekly dosing was begun after a single week break, with doses of 2.00 μg/kg SG2000, 1.75 μg/kg SG2000 and 2.00 μg/kg SG2000.
Patients 2 to 9 were treated as follows, with the stated amount of SG2000 (μg/kg), with a 3 weekly cycle of weekly treatments, and a single break week between cycles.
Patients 2, 4-5 were diagnosed with multicentric B-cell high grade lymphoma, Patients 3, 8 and 9 were diagnosed with multicentric B-cell intermediate grade lymphoma and Patient 6 was diagnosed with multicentric T-cell high grade lymphoma. Patient 7 was diagnosed with multicentric and mediastinal high grade lymphoma, which was suspected to be to be T-cell lymphoma.

[1] = Patient 1, dog, multicentric B-cell high grade lymphoma
[2] = Patient 1, dog, multicentric B-cell high grade lymphoma, IV 1.75-2.00 μg/kg weekly, 3 cycles
[3] = dogs with multicentric lymphoma, Patients 2 to 9, IV 1.5-2 μg/kg weekly

SMILES: C=C1C[C@H]2C=Nc3cc(OCCCOc4cc5c(cc4OC)C(=O)N4CC(=C)C[C@H]4C=N5)c(OC)cc3C(=O)N2C1 [SG2000]
- Progression free interval with treatment [1]: 111 days
- Survival time since the start of the SG2000 trial [1]: 126 days
- Patient response at the end of the planned 3 cycles [2]: PD (Progressive disease (PD) is defined as a >20% increase in the sum of the longest dimensions of the target lesions)
- Toxicity at the end of the planned 3 cycles [2]: grade 4 anaemia
- Disease course in the planned three week break after first cycle (Patient 1, dog, multicentric B-cell high grade lymphoma, after first cycle IV 1.75 μg/kg weekly): the disease progressed
- Response during first cycle (Patient 1, dog, multicentric B-cell high grade lymphoma, first cycle (3 weeks) IV 1.75 μg/kg single weekly dose): SD
- Survival time from diagnosis (Patient 1, dog, multicentric B-cell high grade lymphoma, previously treated with 5 protocols): 408 days
- Progression free interval [3]: 10 d (2×) and 56 d and 54 d and 7 d and 158 d and 43 d
- Survival time from SG2000 start [3]: 24 days and 74 days and 16 days and 95 days and 8 days and 195 days and 49 days
- Survival time from diagnosis [3]: 31 days and 186 days and 252 days and 336 days and 141 days and 811 days and 138 days
- Response to SG2000 (dogs with multicentric lymphoma, Patients 2 to 9, IV 1.5-2 μg/kg weekly, 3 weekly cycles): PD (Progressive disease (PD) is defined as a >20% increase in the sum of the longest dimensions of the target lesions) (3×) and SD (2×) and PR (Partial response (PR) is defined as a >30% decrease in the sum of the longest dimensions of the target lesions) (2×) and CR
